EC50 data for 22 molecules are collected here from patent US8314120B2, “Small molecule potentiators of metabotropic glutamate receptors” (Abbott GmbH & Co. KG, priority 2010, dated 2012).

Experiment [1] deals with T1, mGlu2 (Homo sapiens, UniProt Q14416). In words: FLIPR intracellular Ca2+ assay, potentiation of glutamate at mGlu2 receptor in HEK293 cell clone. The class given is cell-based. Also on record: V5/His (named in the vector only); expressed in transfected cells; host or cells: HEK293. As to conditions: potentiation of 1 μM glutamate, HEK293 cells expressing human mGlu2, rGLAST and Galpha16. As to the method: For the purpose of the present study, a cell line permanently expressing the human mGlu2 receptor, the rat glutamate transporter rGLAST and the alpha subunit of G16 was generated by transfection. Briefly, HEK293 cells were seeded in petri dishes (diameter 15 cm) at a density of 2×10^6 cells in DMEM with glutamax (Invitrogen, GIBCO #21885-025), 10% dialyzed Fetal Calf Serum (Invitrogen, Gibco #26400-044), and incubated at 37° C. over night. The following day cells were transfected with Lipofectamine (Invitrogen, Gibco #18324-012) as recommended by the manufacturer, using linearized pcDNA3.1 (V5/His)-hmGlu2 receptor (ScaI) and pcDNA3.1 Zeo-Ga16 IRES rGLAST (SspI). After transfection the cells were selected in DMEM Glutamax Medium (Invitrogen, GIBCO #21885-025), containing 10% dialyzed fetal calf serum (FCS; (Invitrogen, Gibco #26400-044), antibiotic/antimycotic, 800 μg/ml Geneticin (G418) and 250 μg/ml Zeozin. Single clones were isolated manually and further subcloned by serial dilution.
T1 sequence (Q14416 19-872): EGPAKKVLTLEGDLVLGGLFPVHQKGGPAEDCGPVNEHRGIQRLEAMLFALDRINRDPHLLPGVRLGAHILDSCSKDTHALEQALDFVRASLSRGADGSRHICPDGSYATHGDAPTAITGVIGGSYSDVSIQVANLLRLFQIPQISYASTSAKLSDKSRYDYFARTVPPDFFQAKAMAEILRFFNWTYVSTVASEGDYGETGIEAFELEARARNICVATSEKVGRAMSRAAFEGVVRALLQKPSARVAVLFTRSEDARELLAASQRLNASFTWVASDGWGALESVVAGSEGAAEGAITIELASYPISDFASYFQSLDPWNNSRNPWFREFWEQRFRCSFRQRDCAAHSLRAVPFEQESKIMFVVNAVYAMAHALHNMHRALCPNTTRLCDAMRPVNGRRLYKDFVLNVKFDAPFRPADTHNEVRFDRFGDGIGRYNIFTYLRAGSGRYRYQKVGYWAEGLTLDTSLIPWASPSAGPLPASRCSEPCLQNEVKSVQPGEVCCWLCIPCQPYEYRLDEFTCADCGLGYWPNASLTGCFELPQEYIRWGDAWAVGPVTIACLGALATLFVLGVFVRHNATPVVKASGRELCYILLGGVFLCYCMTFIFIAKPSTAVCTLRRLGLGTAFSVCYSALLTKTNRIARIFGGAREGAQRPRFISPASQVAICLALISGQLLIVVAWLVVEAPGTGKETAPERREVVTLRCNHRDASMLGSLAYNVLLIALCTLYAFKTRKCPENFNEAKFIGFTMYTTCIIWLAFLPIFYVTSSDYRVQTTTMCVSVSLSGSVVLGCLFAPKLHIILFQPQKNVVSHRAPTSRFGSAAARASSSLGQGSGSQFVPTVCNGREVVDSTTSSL
The function of the mGlu2 receptor was determined by evaluating intracellular Ca^2+ concentrations under standard conditions in a fluorometric imaging plate reader (FLIPR, Molecular Devices, Union City, Calif. 94587, USA) by measuring the response of the cells to a test compound. The FLIPR assay is a common functional assay to monitor native or recombinant Galphaq-coupled receptors, and native or recombinant receptors normally linked to other G-protein signalling cascades, which are coupled to calcium through co-expression of an alpha subunit of a promiscuous or chimeric G-protein. In the assay the increase of intracellular calcium is measured through a calcium-dependent fluorescent dye (e.g. Fluo-4 AM) in the FLIPR instrument.
For selection of a suitable cell clone and also the subsequent measurements of the selected clone, 4×10^4 cells/well were plated on poly-D-lysine coated Biocoat-plates multiwell 96 in DMEM Glutamax (GIBCO #21885-025)/10% dialyzed FCS over night. The following day, the medium was aspirated and exchanged for glutamate-free DMEM (Gibco #21969-035), without FCS or glutamine, containing 50 μg/ml gentamycin (Gibco #15750). Cells were again incubated over night. Before the measurement, cells were loaded with 2 μM Fluo-4 AM (Molecular Probes, F14201; stock solution 1 mM in DMSO) and 0.02% Pluronic F127 (Molecular Probes, P3000; stock solution 10% in DMSO) in DMEM medium (Gibco #21969-035) for 45 minutes at 37° C. in a final volume of 100 μl per well. Finally, the plates were washed in a BioTec cell washer with HBSS, containing 20 mM HEPES. The end-volume in each well was 100 μl. The plates were subsequently measured in a fluorometric imaging plate reader (FLIPR, Molecular Devices, Union City, Calif. 94587, USA).
The compounds of the present invention were tested in the above-described FLIPR assay using the selected cell clone. Increased intracellular calcium levels were quantified following addition of test compound (agonism), as well as following addition of a submaximal concentration of 1 micromolar (1 μM) glutamate (potentiation).
For the determination of the effect of the test compound by itself (agonism) or by increasing the response to a submaximal concentration (e.g. 1 μM) of glutamate (potentiation), the resulting signal is determined by subtraction of the background fluorescence from the maximal fluorescent peak height of the respective response. In the FLIPR instrument the compound is given to the cell and its fluorescence response quantified by the FLIPR instrument (agonism). The concentration at which the compound exerts half its maximal effect is named the ‘effective concentration 50’ or ‘EC50’. The maximal effect induced by the test substance is normalized to the maximal effect exerted by 100 μM glutamate (set at 100%).
Ten minutes after addition of the test compound to the plate, 1 μM glutamate is added. A potentiator enhances the response of the receptor to glutamate. […]

Experiment [2] addresses T1, mGlu2. As to conditions: agonist; cited from earlier work.

Where a name gives a salt, the structure may show the parent alone. Read-outs that look alike come from different tables or passages of the source.

Broadly, the EC50 is the concentration at which the effect is half-maximal. Take `CCCCN1Cc2cc(Nc3cncc(-c4ccccc4)c3)cc(Cl)c2C1=O` [Example 4, 2-butyl-7-chloro-5-[(5-phenylpyridin-3-yl)amino]-2,3-dihydro-1H-isoindol-1-one]: the EC50 on mGlu2 [1] fell in the range of 0.5 to 2 µM.
Regarding `CCCCN1Cc2cc(Nc3cncc(N4CCNCC4)c3)ccc2C1=O` [Example 5, 2-butyl-5-{[5-(piperazin-1-yl)pyridin-3-yl]amino}-2,3-dihydro-1H-isoindol-1-one], the EC50 on mGlu2 [1] lay in the range of 2 to 10 µM.
With `CCCCN1Cc2cc(Nc3cc(N4CCNCC4)cnc3Cl)ccc2C1=O` [Example 6, 2-butyl-5-{[2-chloro-5-(piperazin-1-yl)pyridin-3-yl]amino}-2,3-dihydro-1H-isoindol-1-one], the EC50 on mGlu2 [1] is 2 to 10 µM.
As to `CCCCN1Cc2cc(Nc3cncc(Cl)c3)ccc2C1=O` [Example 7, 2-butyl-5-[(5-chloropyridin-3-yl)amino]-2,3-dihydro-1H-isoindol-1-one], the EC50 on mGlu2 [1] lay within 0.5 to 2 µM.
Take `CCCCN1Cc2cc(Nc3cncc(N4CCOCC4)c3)ccc2C1=O` [Example 8, 2-butyl-5-{[5-(morpholin-4-yl)pyridin-3-yl]amino}-2,3-dihydro-1H-isoindol-1-one]: at mGlu2 [1], the EC50 is less than 0.5 µM.
As to `CCCCN1Cc2cc(Nc3cc(N4CCN(C)CC4)cnc3Cl)ccc2C1=O` [Example 9, 2-butyl-5-{[2-chloro-5-(4-methylpiperazin-1-yl)pyridin-3-yl]amino}-2,3-dihydro-1H-isoindol-1-one], the EC50 on mGlu2 [1] is 0.5 to 2 µM.
Consider `CCCCN1Cc2cc(Nc3cncc(N4CCN(C)CC4)c3)ccc2C1=O` [Example 10, 2-butyl-5-{[5-(4-methylpiperazin-1-yl)pyridin-3-yl]amino}-2,3-dihydro-1H-isoindol-1-one], for which the EC50 at mGlu2 [1] was in the range of 2 to 10 µM.
Consider `CCCCN1Cc2cc(Oc3cncc(-c4ccccc4)c3)ccc2C1=O` [Example 11, 2-butyl-5-[(5-phenylpyridin-3-yl)oxy]-2,3-dihydro-1H-isoindol-1-one], for which, at mGlu2 [1], the EC50 is less than 0.5 µM.
As for `CCCCN1Cc2c(Oc3cncc(-c4ccccc4)c3)cccc2C1=O` [Example 12, 2-butyl-4-[(5-phenylpyridin-3-yl)oxy]-2,3-dihydro-1H-isoindol-1-one trifluoroacetate], the EC50 at mGlu2 [1] was less than 0.5 µM.
For `CCCCN1CCc2c(Oc3cncc(-c4ccccc4)c3)cccc2C1=O` [Example 13, 2-butyl-5-[(5-phenylpyridin-3-yl)oxy]-3,4-dihydroisoquinolin-1(2H)-one trifluoroacetate], the EC50 on mGlu2 [1] was less than 0.5 µM.
`CCCCN1CCc2cc(Oc3cncc(-c4ccccc4)c3)ccc2C1=O` [Example 14, 2-butyl-6-[(5-phenylpyridin-3-yl)oxy]-3,4-dihydroisoquinolin-1(2H)-one trifluoroacetate]: the half-maximal effective concentration (EC50) at mGlu2 [1] is less than 0.5 µM.
Turning to `CCCCN1Cc2ccc(Oc3cncc(-c4ccccc4)c3)cc2C1=O` [Example 15, 2-butyl-6-[(5-phenylpyridin-3-yl)oxy]-2,3-dihydro-1H-isoindol-1-one trifluoroacetate], on mGlu2 [1], the EC50 lay within 0.5 to 2 µM.
As for `CCCCN1Cc2cc(Nc3cncc(-c4ccccc4)n3)ccc2C1=O` [Example 16, 2-butyl-5-(6-phenyl-pyrazin-2-ylamino)-2,3-dihydro-isoindol-1-one], on mGlu2 [1], the EC50 is less than 0.5 µM.
For the molecule `CCCCN1Cc2cc(Nc3cnc4ccccc4c3)ccc2C1=O` [Example 17, 2-butyl-5-(quinolin-3-ylamino)-2,3-dihydro-1H-isoindol-1-one], the EC50 at mGlu2 [1] is 0.5 to 2 µM.
Same read-out and setting: then `CCCCN1Cc2cc(Nc3cnc4ccccc4n3)ccc2C1=O` [Example 18, 2-butyl-5-(quinoxalin-2-ylamino)-2,3-dihydro-1H-isoindol-1-one], with 2 to 10 µM; and `COCCN1Cc2cc(Nc3cncc(-c4ccccc4)c3)ccc2C1=O` [Example 19, 2-(2-methoxyethyl)-5-[(5-phenylpyridin-3-yl)amino]-2,3-dihydro-1H-isoindol-1-one], with 0.5 to 2 µM.
Same read-out and setting: then `CCCCN1Cc2cc(Nc3cccnc3Cl)ccc2C1=O` [Example 20, 2-butyl-5-[(2-chloropyridin-3-yl)amino]-2,3-dihydro-1H-isoindol-1-one], with 2 to 10 µM; and `CCCCN1CCc2c(Oc3cc(N4CCNCC4)cnc3Cl)cccc2C1=O` [Example 21, 2-butyl-5-{[2-chloro-5-(piperazin-1-yl)pyridin-3-yl]oxy}-3,4-dihydroisoquinolin-1(2H)-one], with 0.5 to 2 µM; and `CCCCN1CCc2c(Oc3cc(N4CCN(C)CC4)cnc3Cl)cccc2C1=O` [Example 22, 2-butyl-5-{[2-chloro-5-(4-methylpiperazin-1-yl)pyridin-3-yl]oxy}-3,4-dihydroisoquinolin-1(2H)-one], with 0.5 to 2 µM.
With `CCCCN1Cc2cc(Cc3cncc(-c4ccccc4)c3)ccc2C1=O` [Example 23, 2-butyl-5-[(5-phenylpyridin-3-yl)methyl]-2,3-dihydro-1H-isoindol-1-one], the concentration giving a half-maximal response (EC50) at mGlu2 [1] was in the range of 0.5 to 2 µM.
Regarding `CCCCN1Cc2cc(-c3cncc(-c4ccccc4)c3)ccc2C1=O` [Example 24, 2-butyl-5-(5-phenylpyridin-3-yl)-2,3-dihydro-1H-isoindol-1-one], the EC50 on mGlu2 [1] was in the range of 0.5 to 2 µM.
For `N[C@@]1(C(=O)O)CO[C@H]2[C@H](C(=O)O)[C@H]21` [LY379268], the concentration for a half-maximal effect (EC50) at mGlu2 [2] was 0.003 µM.
